Experiments:
[1] = biological target: human recombinant BACE1 (Homo sapiens (Human), UniProt P56817); assay: In vitro enzymatic BACE1 FRET assay; format: biochemical; details: read-out: IC50 IP (μM) BACE1 enzyme
Method in brief: (§1)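 Ni-NTA-purified recombinant protease incubated with compound; reaction started with 50 nM FRET peptide substrate (fluorophore/quencher flanking the BACE cleavage site) and run 1 h. Stopped with Tris buffer raising pH to neutral; fluorescence read at ex 488/em 590 nm.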

[2] = biological target: human recombinant BACE2 (Homo sapiens (Human), UniProt Q9Y5Z0); assay: In vitro enzymatic BACE2 FRET assay; format: biochemical; details: read-out: IC50 IP (μM) BACE2 enzyme
Chain of human recombinant BACE2 (Q9Y5Z0 63-518): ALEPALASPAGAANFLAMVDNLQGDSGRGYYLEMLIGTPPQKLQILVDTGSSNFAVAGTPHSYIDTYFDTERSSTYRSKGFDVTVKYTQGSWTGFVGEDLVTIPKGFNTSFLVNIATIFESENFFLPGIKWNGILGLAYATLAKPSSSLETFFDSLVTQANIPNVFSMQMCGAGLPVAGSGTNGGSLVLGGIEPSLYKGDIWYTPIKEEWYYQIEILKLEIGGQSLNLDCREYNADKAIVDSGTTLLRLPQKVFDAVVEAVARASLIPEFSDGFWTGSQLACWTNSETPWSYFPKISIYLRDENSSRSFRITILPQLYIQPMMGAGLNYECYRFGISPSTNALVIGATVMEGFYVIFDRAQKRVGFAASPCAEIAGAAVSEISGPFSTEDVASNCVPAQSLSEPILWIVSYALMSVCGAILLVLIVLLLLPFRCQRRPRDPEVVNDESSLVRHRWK
Method in brief: as §1

[3] = system: Aβ40 in conditioned medium of cells stably expressing Amyloid Precursor Protein (APP); assay: In vitro BACE-1 cell-based assay (Aβ40 sandwich ELISA); details: read-out: IC50 IP (μM) BACE1 cell
Method in brief: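 APP-expressing cells treated 24 h at 37 °C with compound in 10-point dose response (top 100 μM or 10 μM, 0.1% DMSO final). Secreted Aβ40 in conditioned medium quantified by sandwich ELISA (pAb40 capture, biotinylated 6E10 detection, time-resolved europium fluorescence); IC50 from percent inhibition versus concentration.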

[4] = biological target: Recombinant Cat D (Homo sapiens (Human), UniProt P07339); assay: In vitro enzymatic Cathepsin D (Cat D) FRET assay; format: biochemical; details: read-out: IC50 IP (μM) CatD
Chain of Recombinant Cat D (P07339 65-412): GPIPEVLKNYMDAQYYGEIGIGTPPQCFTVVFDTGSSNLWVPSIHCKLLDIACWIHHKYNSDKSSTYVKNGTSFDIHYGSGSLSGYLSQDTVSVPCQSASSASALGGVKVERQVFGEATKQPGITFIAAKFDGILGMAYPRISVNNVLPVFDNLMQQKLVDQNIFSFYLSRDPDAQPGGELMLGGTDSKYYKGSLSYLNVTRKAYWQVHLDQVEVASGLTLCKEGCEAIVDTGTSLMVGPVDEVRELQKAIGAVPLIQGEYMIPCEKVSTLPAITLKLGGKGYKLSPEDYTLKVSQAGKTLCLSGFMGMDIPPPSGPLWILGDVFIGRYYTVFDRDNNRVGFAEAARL
Method in brief: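 Human Cat D expressed in CHO cells was incubated for one hour in 0.05 M citrate pH 3.5, 5 mM CHAPS, 10% DMSO final, with 20 nM quenched FRET peptide substrate. Reactions were stopped with Tris buffer raising pH to neutrality. Cleavage was read as fluorescence at excitation 500 nm, emission 580 nm.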

Chain of human recombinant BACE1 (P56817 46-501): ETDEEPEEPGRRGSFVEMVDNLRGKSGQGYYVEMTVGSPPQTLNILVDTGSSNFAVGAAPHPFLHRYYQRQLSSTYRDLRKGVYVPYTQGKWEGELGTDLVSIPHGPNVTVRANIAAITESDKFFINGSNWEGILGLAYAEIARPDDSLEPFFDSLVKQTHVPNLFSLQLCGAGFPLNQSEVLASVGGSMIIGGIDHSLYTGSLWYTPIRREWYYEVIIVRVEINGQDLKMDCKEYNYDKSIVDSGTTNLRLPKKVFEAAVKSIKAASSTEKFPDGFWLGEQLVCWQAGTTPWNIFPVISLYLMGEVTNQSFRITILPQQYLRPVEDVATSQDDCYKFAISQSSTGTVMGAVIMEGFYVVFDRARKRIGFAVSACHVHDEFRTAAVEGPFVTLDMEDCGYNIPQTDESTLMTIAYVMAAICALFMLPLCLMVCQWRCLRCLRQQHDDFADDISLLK

`C#CCOc1cnc2c(Nc3ccc(F)c([C@@]4(CF)N=C(N)S[C@@]5(/C=C/C(=O)N6CC(F)(F)C6)C[C@H]54)c3)nccc2n1` [Example 773, N-(3-((1R,5S,6S)-3-amino-1-((1E)-3-(3,3-difluoro-1-azetidinyl)-3-oxo-1-propen-1-yl)-5-(fluoromethyl)-2-thia-4-azabicyclo[4.1.0]hept-3-en-5-yl)-4-fluorophenyl)-2-(2-propyn-1-yloxy)pyrido[3,4-b]pyrazin-5-amine] gave an IC50 [1] of 0.000423 µM, an IC50 [2] of under 0.00203 µM and an IC50 [3] of 0.00148 µM. The IC50 [4] was 113 µM.

Compound `C#CCOc1cnc(C(=O)Nc2ccc(F)c([C@@]3(CF)N=C(N)S[C@@]4(/C=C/C(=O)N(C)C)C[C@H]43)c2)cn1` [Example 774, N-(3-((1R,5S,6S)-3-amino-1-((1E)-3-(dimethylamino)-3-oxo-1-propen-1-yl)-5-(fluoromethyl)-2-thia-4-azabicyclo[4.1.0]hept-3-en-5-yl)-4-fluorophenyl)-5-(2-propyn-1-yloxy)-2-pyrazinecarboxamide] has an IC50 [1] of 0.000313 µM, an IC50 [2] of 0.00575 µM and an IC50 [3] of 0.000583 µM. The IC50 [4] was 7.95 µM.

With `CN(C)C(=O)/C=C/[C@]12C[C@H]1[C@@](CF)(c1cc(Nc3ncnc4cc(OCc5ncco5)cnc34)ccc1F)N=C(N)S2` [Example 775, (2E)-3-((1R,5S,6S)-3-amino-5-(fluoromethyl)-5-(2-fluoro-5-((7-(1,3-oxazol-2-ylmethoxy)pyrido[3,2-d]pyrimidin-4-yl)amino)phenyl)-2-thia-4-azabicyclo[4.1.0]hept-3-en-1-yl)-N,N-dimethyl-2-propenamide] the IC50 [1] was 0.00112 µM, the IC50 [2] was 0.0602 µM and the IC50 [3] was 0.00323 µM. For the same compound, the IC50 [4] was 22.8 µM.

For `C#CCOc1cnc2c(Nc3ccc(F)c([C@@]4(CF)N=C(N)S[C@@]5(/C=C/C(=O)N(C)C)C[C@H]54)c3)ncnc2c1` [Example 776, (2E)-3-((1R,5S,6S)-3-amino-5-(fluoromethyl)-5-(2-fluoro-5-((7-(2-propyn-1-yloxy)pyrido[3,2-d]pyrimidin-4-yl)amino)phenyl)-2-thia-4-azabicyclo[4.1.0]hept-3-en-1-yl)-N,N-dimethyl-2-propenamide], the IC50 [1] was 0.0012 µM, the IC50 [2] was 0.0264 µM and the IC50 [3] was 0.00305 µM. The IC50 [4] was 293 µM.

Work on `C/C(=C/[C@]12C[C@H]1[C@@](CF)(c1cc(NC(=O)c3ccc(Cl)cn3)ccc1F)N=C(N)S2)C(=O)N1CCOCC1` [Example 777, N-(3-((1R,5S,6S)-3-amino-5-(fluoromethyl)-1-((Z)-2-methyl-3-morpholino-3-oxoprop-1-en-1-yl)-2-thia-4-azabicyclo[4.1.0]hept-3-en-5-yl)-4-fluorophenyl)-5-chloropicolinamide] yielded an IC50 [1] of 0.000274 µM, an IC50 [2] of under 0.00203 µM and an IC50 [3] of 0.000416 µM. The IC50 [4] was 834 µM.

`C/C(=C\[C@]12C[C@H]1[C@@](CF)(c1cc(NC(=O)c3ccc(Cl)cn3)ccc1F)N=C(N)S2)C(=O)N1CCOCC1` [Example 778, N-(3-((1R,5S,6S)-3-amino-5-(fluoromethyl)-1-((E)-2-methyl-3-morpholino-3-oxoprop-1-en-1-yl)-2-thia-4-azabicyclo[4.1.0]hept-3-en-5-yl)-4-fluorophenyl)-5-chloropicolinamide] showed an IC50 [1] of 0.00558 µM, an IC50 [2] of 0.0026 µM and an IC50 [3] of 0.0134 µM. The IC50 [4] was 557 µM.

With `C#CCOc1cnc2c(Nc3ccc(F)c([C@@]4(CF)N=C(N)S[C@@]5(C(=O)N(C)C)C[C@H]54)c3)nccc2n1` [Example 779, (1S,5S,6S)-3-amino-5-(fluoromethyl)-5-(2-fluoro-5-((2-(2-propyn-1-yloxy)pyrido[3,4-b]pyrazin-5-yl)amino)phenyl)-N,N-dimethyl-2-thia-4-azabicyclo[4.1.0]hept-3-ene-1-carboxamide] the IC50 [1] was 0.000728 µM, the IC50 [2] was under 0.00203 µM and the IC50 [3] was 0.00082 µM. For the same compound, the IC50 [4] was over 400 µM.

In the case of `C#CCOc1cnc(C(=O)Nc2ccc(F)c([C@@]3(CF)N=C(N)S[C@@]4(c5cnco5)C[C@@H]34)c2)cn1` [Example 780, N-(3-((1S,5S,6S)-3-amino-5-(fluoromethyl)-1-(1,3-oxazol-5-yl)-2-thia-4-azabicyclo[4.1.0]hept-3-en-5-yl)-4-fluorophenyl)-5-(2-propyn-1-yloxy)-2-pyrazinecarboxamide], the IC50 [1] is reported as 0.00022 µM, the IC50 [2] is reported as under 0.0061 µM and the IC50 [3] is reported as 0.00126 µM. For the same compound, the IC50 [4] was 116 µM.

For `C#CCOc1cnc2c(Nc3ccc(F)c([C@@]4(CF)N=C(N)S[C@@]5(c6cnco6)C[C@@H]45)c3)nccc2n1` [Example 781, N-(3-((1S,5S,6S)-3-amino-5-(fluoromethyl)-1-(1,3-oxazol-5-yl)-2-thia-4-azabicyclo[4.1.0]hept-3-en-5-yl)-4-fluorophenyl)-2-(2-propyn-1-yloxy)pyrido[3,4-b]pyrazin-5-amine], the IC50 [1] was 0.000422 µM, the IC50 [2] was 0.00329 µM and the IC50 [3] was 0.00577 µM. For the same compound, the IC50 [4] was 397 µM.

In the case of `C#CCOc1cnc2c(Nc3ccc(F)c([C@@]4(CF)N=C(N)S[C@@]5(c6cnco6)C[C@@H]45)c3)ncnc2c1` [Example 782, N-(3-((1S,5S,6S)-3-amino-5-(fluoromethyl)-1-(1,3-oxazol-5-yl)-2-thia-4-azabicyclo[4.1.0]hept-3-en-5-yl)-4-fluorophenyl)-7-(2-propyn-1-yloxy)pyrido[3,2-d]pyrimidin-4-amine], the IC50 [1] is reported as 0.000577 µM, the IC50 [2] is reported as 0.0245 µM and the IC50 [3] is reported as 0.0197 µM. It also gave an IC50 [4] of 792 µM.

`NC1=N[C@](CF)(c2cc(NC(=O)c3cnc(OCc4ncco4)cn3)ccc2F)[C@@H]2C[C@]2(c2cnco2)S1` [Example 783, N-(3-((1S,5S,6S)-3-amino-5-(fluoromethyl)-1-(1,3-oxazol-5-yl)-2-thia-4-azabicyclo[4.1.0]hept-3-en-5-yl)-4-fluorophenyl)-5-(1,3-oxazol-2-ylmethoxy)-2-pyrazinecarboxamide] showed an IC50 [1] of 0.000501 µM, an IC50 [2] of 0.00245 µM and an IC50 [3] of 0.00485 µM. The IC50 [4] was over 400 µM.

`C#CCOc1cnc(C(=O)Nc2ccc(F)c([C@@]3(CF)N=C(N)S[C@@]4(c5ocnc5C)C[C@@H]34)c2)cn1` [Example 784, N-(3-((1S,5S,6S)-3-amino-5-(fluoromethyl)-1-(4-methyloxazol-5-yl)-2-thia-4-azabicyclo[4.1.0]hept-3-en-5-yl)-4-fluorophenyl)-5-(prop-2-yn-1-yloxy)pyrazine-2-carboxamide] showed an IC50 [1] of 0.000318 µM, an IC50 [2] of under 0.00203 µM and an IC50 [3] of 0.00152 µM. For the same compound, the IC50 [4] was 166 µM.

For `NC1=N[C@](CF)(c2cc(NC(=O)c3ccc(Cl)cn3)ccc2F)[C@@H]2C[C@]2(c2cnco2)S1` [Example 785, N-(3-((1S,5S,6S)-3-amino-5-(fluoromethyl)-1-(1,3-oxazol-5-yl)-2-thia-4-azabicyclo[4.1.0]hept-3-en-5-yl)-4-fluorophenyl)-5-chloro-2-pyridinecarboxamide], the IC50 [1] was 0.00112 µM, the IC50 [2] was under 0.00203 µM and the IC50 [3] was 0.0102 µM. It also gave an IC50 [4] of 621 µM.

`NC1=N[C@](CF)(c2cc(NC(=O)c3ccc(Cl)cn3)ccc2F)[C@@H]2C[C@]2(c2ccon2)S1` [Example 786, N-(3-((1S,5S,6S)-3-amino-5-(fluoromethyl)-1-(isoxazol-3-yl)-2-thia-4-azabicyclo[4.1.0]hept-3-en-5-yl)-4-fluorophenyl)-5-chloropicolinamide] showed an IC50 [1] of 0.000976 µM, an IC50 [2] of under 0.00203 µM and an IC50 [3] of 0.0464 µM. It also gave an IC50 [4] of 584 µM.

For `Cc1ncoc1[C@]12C[C@H]1[C@@](CF)(c1cc(NC(=O)c3ccc(Cl)cn3)ccc1F)N=C(N)S2` [Example 787, N-(3-((1S,5S,6S)-3-amino-5-(fluoromethyl)-1-(4-methyl-1,3-oxazol-5-yl)-2-thia-4-azabicyclo[4.1.0]hept-3-en-5-yl)-4-fluorophenyl)-5-chloro-2-pyridinecarboxamide], the IC50 [1] was 0.000847 µM, the IC50 [2] was under 0.00203 µM and the IC50 [3] was 0.0139 µM. The IC50 [4] was 1230 µM.

With `C#CCOc1cnc2c(Nc3ccc(F)c([C@@]4(CF)N=C(N)S[C@@]5(c6ocnc6C)C[C@@H]45)c3)ncnc2c1` [Example 788, N-(3-((1S,5S,6S)-3-amino-5-(fluoromethyl)-1-(4-methyl-1,3-oxazol-5-yl)-2-thia-4-azabicyclo[4.1.0]hept-3-en-5-yl)-4-fluorophenyl)-7-(2-propyn-1-yloxy)pyrido[3,2-d]pyrimidin-4-amine] the IC50 [1] was 0.00127 µM, the IC50 [2] was 0.0122 µM and the IC50 [3] was 0.0161 µM. For the same compound, the IC50 [4] was 485 µM.

Work on `C#CCOc1ccc(C(=O)Nc2ccc(F)c([C@@]3(CF)N=C(N)S[C@@]4(c5ocnc5C)C[C@@H]34)c2)nc1` [Example 789, N-(3-((1S,5S,6S)-3-amino-5-(fluoromethyl)-1-(4-methyl-1,3-oxazol-5-yl)-2-thia-4-azabicyclo[4.1.0]hept-3-en-5-yl)-4-fluorophenyl)-5-(2-propyn-1-yloxy)-2-pyridinecarboxamide] yielded an IC50 [1] of 0.000528 µM, an IC50 [2] of 0.00936 µM and an IC50 [3] of 0.0259 µM. The IC50 [4] was 835 µM.

`CN(C)C(=O)[C@]12C[C@H]1[C@@](CF)(c1cc(NC(=O)c3ccc(Cl)cn3)ccc1F)N=C(N)S2` [Example 790, (1S,5S,6S)-3-amino-5-(5-(((5-chloro-2-pyridinyl)carbonyl)amino)-2-fluorophenyl)-5-(fluoromethyl)-N,N-dimethyl-2-thia-4-azabicyclo[4.1.0]hept-3-ene-1-carboxamide] showed an IC50 [1] of 0.000338 µM, an IC50 [2] of under 0.00203 µM and an IC50 [3] of 0.0028 µM. It also gave an IC50 [4] of 792 µM.

Reference: patent US20160046618A1, “Cyclopropyl Fused Thiazin-2-Amine Compounds as Beta-Secretase Inhibitors and Methods of Use” (AMGEN INC., priority 2014, published 2016)
